# Experimental data from publication PMC9124820, “In vitro evaluation of fenfluramine and norfenfluramine as victims of drug interactions” (Pharmacology Research & Perspectives, 2022).
# Target: T1, rCYP2B6 (Homo sapiens, UniProt P20813)
# T1 construct: purchased Cypex, Ltd; host or cells: Escherichia coli
# T1 sequence (P20813 1-491): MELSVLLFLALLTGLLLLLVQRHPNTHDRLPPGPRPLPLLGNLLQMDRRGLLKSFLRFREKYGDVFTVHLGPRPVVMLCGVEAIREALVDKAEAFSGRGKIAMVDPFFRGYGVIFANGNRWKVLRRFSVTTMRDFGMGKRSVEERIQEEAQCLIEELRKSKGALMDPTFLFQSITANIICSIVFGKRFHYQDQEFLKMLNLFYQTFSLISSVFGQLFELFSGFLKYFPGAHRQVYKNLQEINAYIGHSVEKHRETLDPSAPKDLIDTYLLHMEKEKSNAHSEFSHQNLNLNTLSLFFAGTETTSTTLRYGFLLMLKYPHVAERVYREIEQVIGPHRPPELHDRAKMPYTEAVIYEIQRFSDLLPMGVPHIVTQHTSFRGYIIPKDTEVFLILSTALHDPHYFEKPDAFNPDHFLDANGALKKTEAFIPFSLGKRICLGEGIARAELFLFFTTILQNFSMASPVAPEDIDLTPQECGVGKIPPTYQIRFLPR
# Assay: Reaction phenotyping with rCYP2B6
# Assay type: in vitro ADME
# Experimental: For FFA and nFFA reaction phenotyping experiments, LC‐MS/MS experiments were performed using an API 4000 QTRAP or QTRAP 5500 mass spectrometer (SCIEX) with positive electrospray ionization. Chromatography was performed using an Atlantis dC18 analytical column (100 × 2.1 mm, 5 µm; Waters Corporation). Mobile phases were 0.2% v/v formic acid in water and 0.2% v/v formic acid in methanol. FFA and nFFA were eluted at a flow rate of 0.5 mL/min with a linear gradient of 40%−95% methanol from 0.20−2.1 min. The mass transitions monitored were 232.0>109.0 for FFA, 204.0>159.0 for nFFA, 348.0>330.0 for 1’‐hydroxymidazolam‐d4 internal standard (FFA reaction phenotyping), and 262.0>244.0 for hydroxybupropion‐d6 internal standard (nFFA reaction phenotyping). Analyst Instrument Control and Data Processing software (v. 1.6.1) was used for collecting and integrating data (SCIEX). Calibration curves ranging from 1.25 µM−0.01 µM were used to quantify nFFA. Relative quantitation was used to approximate the amount of FFA test material used.
# Methods used to evaluate the role of CYP450s in the metabolism of FFA have been described.[22], [23], [24] […] Supernatant fractions were analyzed by LC‐MS/MS.
smiles,measurement,setting,value
"CCNC(C)Cc1cccc(C(F)(F)F)c1 (racemic) [FFA, (RS)‐ethyl (α‐methyl‐3‐trifluoromethylphenethyl)amine]",FFA disappearance,"1 µM FFA, rCYP2B6",10%
same,FFA loss,"10 μM FFA, rCYP2B6, 60 min",21%
